This is an account of results in patent US7101667B2, “Lanthanide binding tags” (Massachusetts Institute of Technology, priority 2001, dated 2006).

Series [1] is described as follows: Steady-state terbium fluorescence of LBT-S-peptide fusions compared to LBT1. In kind it is physicochemical. The source says: Steady-state fluorescence experiments of the LBT-S-peptide fusions indicated minimal impact of the fusion on the terbium fluorescence compared to LBT1 (see Table 2).
Series [2] is described as follows: Tb^3+ affinity of LBT-S-peptide fusions by isothermal titration calorimetry. Format: binding. The source says:
The affinity of the LBT site for terbium in the context of the fusion peptide was also unchanged when compared with the unmodified LBT sequences with affinities in the low μM range.
A general note: In ITC the heat of successive injections is recorded.

Series [3] in a line: Lanthanide affinity of free LBT and HIS-LBT-Ub by calorimetry. Conditions: read-out: KD for lanthanide ions. Format: binding. An excerpt:
The purified LBT-protein conjugates were further studied to assess whether the fluorescence and binding properties of the LBT were preserved in the protein conjugates.

Series [4] is described as follows: Tb^3+ binding affinity of the disulfide constrained LBT. As to the method: Affinity is determined by titration with lanthanide and detection using fluorescence, circular dichroism, NMR or calorimetry. In the case of tightly binding sequences, it may be necessary to employ competition experiments.
The disulfide constained LBT, ACA-[…]-CAA (known as CC2) binds to Tb^3+ with a KD of 300 nM, an order of magnitude more tightly than other reported Ca-binding peptides. (Kanellis, et al. Arch. Biochem. Biophys. 1983, 220, 530-540; Lopez, et al. Proc. Natl. Acad. Sci. USA 2002, 99, 1298-1303).

The next series addresses T1, RNAse S-protein (bovine, UniProt P61823 47-150).
T1 construct: range 21-124; Numbers count on mature RNAse A; also called Pro-S
T1 sequence (looked up): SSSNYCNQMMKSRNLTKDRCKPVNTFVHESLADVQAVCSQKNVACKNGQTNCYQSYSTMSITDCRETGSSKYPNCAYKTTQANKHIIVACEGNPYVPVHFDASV
Kind of series: isothermal titration calorimetry.

In another series the target is T2, LBT-GPPP-S-Peptide.
T2 chain: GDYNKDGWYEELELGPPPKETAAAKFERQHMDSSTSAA

The mark [5] stands for this setting: read-out: KD Tb^3+ S-Peptide, fusion peptide alone.
The mark [6] stands for this setting: read-out: KD Tb^3+ [S-Peptide/S-protein], peptide complexed with S-protein.

Consider `CSCC[C@H](NC(=O)[C@H](Cc1c[nH]cn1)NC(=O)[C@H](CCC(N)=O)NC(=O)[C@H](CCCNC(=N)N)NC(=O)[C@H](CCC(=O)O)NC(=O)[C@H](Cc1ccccc1)NC(=O)[C@H](CCCCN)NC(=O)[C@H](C)NC(=O)[C@H](C)NC(=O)[C@H](C)NC(=O)[C@@H](NC(=O)[C@H](CCC(=O)O)NC(=O)[C@H](CCCCN)NC(=O)[C@@H]1CCCN1C(=O)[C@@H]1CCCN1C(=O)[C@H](CC(C)C)NC(=O)[C@H](CCC(=O)O)NC(=O)[C@H](CC(C)C)NC(=O)[C@H](CCC(=O)O)NC(=O)[C@H](CCC(=O)O)NC(=O)[C@H](Cc1ccc(O)cc1)NC(=O)[C@H](Cc1c[nH]c2ccccc12)NC(=O)CNC(=O)[C@H](CC(=O)O)NC(=O)[C@H](CCCCN)NC(=O)[C@H](CC(N)=O)NC(=O)[C@H](Cc1ccc(O)cc1)NC(=O)[C@H](CC(=O)O)NC(=O)CN)[C@@H](C)O)C(=O)N[C@@H](CC(=O)O)C(=O)N[C@@H](CO)C(=O)N[C@@H](CO)C(=O)N[C@H](C(=O)N[C@@H](CO)C(=O)N[C@@H](C)C(=O)N[C@@H](C)C(=O)O)[C@@H](C)O` [LBT-PP-S-Peptide], for which the “Fluorescence Relative to LBT1” value in series [1] is listed as 86%. In addition, the figures for the Kd in series [2] (setting [5]) and in series [2] (setting [6]) were 3.3 µM and 9.6 µM, respectively.
Consider GDYNKDGWYEELEL [LBT1], for which the Kd in series [3] stood at 5 µM. Also, the “KD Tb^3+ S-Peptide” value in series [2] (fusion peptide alone) is reported as “low μM”.
For `CSCC[C@H](NC(=O)[C@H](Cc1c[nH]cn1)NC(=O)[C@H](CCC(N)=O)NC(=O)[C@H](CCCNC(=N)N)NC(=O)[C@H](CCC(=O)O)NC(=O)[C@H](Cc1ccccc1)NC(=O)[C@H](CCCCN)NC(=O)[C@H](C)NC(=O)[C@H](C)NC(=O)[C@H](C)NC(=O)[C@@H](NC(=O)[C@H](CCC(=O)O)NC(=O)[C@H](CCCCN)NC(=O)[C@@H]1CCCN1C(=O)[C@@H]1CCCN1C(=O)[C@@H]1CCCN1C(=O)CNC(=O)[C@H](CC(C)C)NC(=O)[C@H](CCC(=O)O)NC(=O)[C@H](CC(C)C)NC(=O)[C@H](CCC(=O)O)NC(=O)[C@H](CCC(=O)O)NC(=O)[C@H](Cc1ccc(O)cc1)NC(=O)[C@H](Cc1c[nH]c2ccccc12)NC(=O)CNC(=O)[C@H](CC(=O)O)NC(=O)[C@H](CCCCN)NC(=O)[C@H](CC(N)=O)NC(=O)[C@H](Cc1ccc(O)cc1)NC(=O)[C@H](CC(=O)O)NC(=O)CN)[C@@H](C)O)C(=O)N[C@@H](CC(=O)O)C(=O)N[C@@H](CO)C(=O)N[C@@H](CO)C(=O)N[C@H](C(=O)N[C@@H](CO)C(=O)N[C@@H](C)C(=O)N[C@@H](C)C(=O)O)[C@@H](C)O` [LBT-GPPP-S-Peptide], in series [1], the “Fluorescence Relative to LBT1” value came out at 96%. The values for the Kd in series [2] (setting [5]) and in series [2] (setting [6]) were 6.6 µM and 6.7 µM, respectively.
“ACA-DYNKDGWYEELE-CAA [CC2, cysteine constrained variant of LBT1]” registered a Kd in series [4] of 0.3 µM.

B1: LBT-GPPP-S-Peptide (peptide)
peptide: GDYNKDGWYEELELGPPPKETAAAKFERQHMDSSTSAA
notes: also called LBT-S-peptide fusion; LBT tagged S-peptide analog
Consider B1, for which, in the series with RNAse S-protein, the Kd was found to be 0.3 µM.

B2: RNAse S-protein (protein)
chain: SSSNYCNQMMKSRNLTKDRCKPVNTFVHESLADVQAVCSQKNVACKNGQTNCYQSYSTMSITDCRETGSSKYPNCAYKTTQANKHIIVACEGNPYVPVHFDASV
In the case of B2, the “catalytic activity of the reconstituted enzymes (cleavage of a fluorescent RNA substrate)” value with LBT-PP-S-Peptide and in the series with LBT-GPPP-S-Peptide was “the S-protein/LBT-S-peptide construct has similar catalytic activity to the native RNAse S in the absence of Tb^+3” throughout.
